Measurements taken from US4521430A, “1,5-Benzothiazepin-4-one, their pharmaceutical compositoins, and methods of use” (Tanabe Seiyaku Co., Ltd., priority 1983, dated 1985).
Counter-ions that a name gives are not always drawn. Each block holds one molecule with its values, some of them ahead of it.

Tests used:
[1] = tested on: platelet aggregation; experiment: Platelet aggregation-inhibiting activity, collagen, platelet-rich plasma (Experiment 4); type: cell-based, Sprague-Dawley rats; set-up: key: -: the test compound showed less than 10% inhibition of platelet aggregation; +: the test compound showed not less than 10% inhibition of platelet aggregation but said percentage inhibition was lower than that of acetylsalicylic acid (100 μg/ml); ++: the test compound showed the platelet aggregation-inhibiting activity at least as strong as that of acetylsalicylic acid (100 μg/ml); conditions: final concentration 100 μg/ml, rat PRP, 37° C., Table 3
Excerpt: Blood was collected from the abdominal aorta of male Sprague-Dawley rats which were anesthetized with ether. Nine volumes of said blood were mixed with one volume of an aqueous 3.8% (w/v) trisodium citrate solution, and the mixture was centrifuged to give platelet-rich plasma ("PRP") as the supernatant solution. The bottom layer was further centrifuged to give platelet-poor plasma ("PPP") as the supernatant solution. Platelet counts were adjusted to 0.8-1×10^6 /mm^3 for PRP by dilution with PPP. After a mixture of 200 μl of the diluted PRP and 25 μl of a test compound solution (final concentration: 100 μg/ml) was stirred for 2 minutes at 37° C., 25 μl of a collagen solution (Biochim. Biophys. Acta, 186, page 254(1969)) were added thereto. The degree of platelet aggregation was estimated by Born's method (Nature, 194, page 927(1962)) and percentage inhibition of platelet aggregation was calculated therefrom.

[2] = tested on: coronary blood flow of the isolated heart; experiment: Coronary vasodilating activity: Langendorff's method, coronary blood flow of isolated heart (Experiment 3); set-up: species or system guinea pig; conditions: for Coronary vasodilating activity (class): isolated guinea pig heart, Langendorff, Table 2
Description: (§1) For example, when the cerebral vasodilating activity is evaluated by examining vertebral artery blood flow in anesthetized dogs to which a test compound is intraarterially administered, said activity of (+)-cis-2-(4-methoxyphenyl)-3-(2-chloro-4-nitrobenzoyloxy)-5-[2-(dimethylamino)ethyl]-2,3-dihydro-1,5-benzothiazepin-4-(5H)-one fumarate is 4.5 times stronger than that of papaverine. On the other hand, the coronary vasodilating activity of (+)-cis-2-(4-methoxyphenyl)-3-(2-chloro-4-nitrobenzoyloxy)-5-[2-(dimethylamino)ethyl]-2,3-dihydro-1,5-benzothiazepin-4(5H)-one fumarate when examined by the Langendorff method using isolated hearts of guinea pigs is 10 times stronger than that of papaverine.
Langendorff's method was used for testing the effect on the coronary blood flow of the isolated heart of guinea pig (about 280 g). The isolated heart was perfused with Locke-Ringer solution containing 2% of defibrinated rabbit blood, which had been saturated with a mixed gas of 95% O2 and 5% CO2 (30° C.). Perfusion pressure was kept at 40 cm H2 O. A solution of a test compound in an aqueous 5% glucose solution was injected into the perfusing solution at a volume of 0.1 ml per heart. The outflow of the perfusate was measured by means of a drop counter.
The coronary vasodilating activity of the test compound was expressed as "±" if the increase in coronary blood flow is less than 0.5 ml/minute at a dose of 100 μg/heart; "+" if the increase is not less than 0.5 ml/minute at a dose of 100 μg/heart; "++" if the increase is not less than 0.5 ml/minute at a dose of 30 μg/heart; and "+++" if the increase is not less than 0.5 ml/minute at a dose of not more than 10 μg/heart.

[3] = tested on: cerebral and/or coronary vasodilating activity; conditions: Japanese Patent Publication Nos. 43784/1971 and 8544/1972; cited from earlier work
[4] = target: calmodulin (Homo sapiens, UniProt P0DP23); experiment: Anti-calmodulin activity: activation of phosphodiesterase activity by calmodulin (Experiment 5); type: biochemical; conditions: pH 7.5, 30° C.; Table 4; read-out: ID50 (concentration for 50% inhibition of the activation of phosphodiesterase activity by calmodulin)
[5] = tested on: vertebral artery blood flow; experiment: Cerebral vasodilating activity: vertebral artery blood flow in anesthetized dogs, injection into vertebral artery (Experiment 1); type: in vivo; conditions: for Cerebral vasodilating activity (potency ratio to papaverin, class): anesthetized male dogs, injected into vertebral artery, Table 1
Description: as §1
(§2) (Cerebral vasodilating activity)
Male dogs weighing 10 to 20 kg were anesthetized with sodium pentobarbital (30 mg/kg, intravenous injection). The blood flow in vertebral artery was measured continuously by means of an electromagnetic flowmeter under artificial respiration. A test compound dissolved in an aqueous 5% glucose solution was injected into vertebral artery. The cerebral vasodilating activity of the test compound was estimated in terms of "the potency ratio of said compound to papaverin" which was calculated from the dose-responsecurves thereof.

[6] = tested on: vertebral blood flow; experiment: Cerebral vasodilating activity: total increase in vertebral blood flow in anesthetized dogs, intravenous (Experiment 2); type: in vivo; conditions: anesthetized male dogs, 0.2 mg/kg intravenously; increase at peak response x half duration time
Description: as §2
Male dogs weighing 11 to 16 kg (one group: 3 dogs) were anesthetized with sodium pentobarbital (30 mg/kg, intravenous injection). The vertebral blood flow was measured by means of an electromagnetic flowmeter under artificial respiration. A test compound dissolved in an aqueous 5% glucose solution was injected intravenously at a dose of 0.2 mg/kg. The cerebral vasodilating activity of the test compound was estimated in terms of "total increase in vertebral blood flow" which was calculated by multiplying "increase (Δml/minute) in blood flow at peak response" by "half duration time (T 1/2:minute)".

[7] = Acute toxicity, oral; conditions: mouse, in vivo, mice, orally
Excerpt: The compound (I) is further characteristic in that said compound is low in toxicity. For example, the acute toxicity (LD50) of (+)-cis-2-(4-methoxyphenyl)-3-(2-chloro-4-nitrobenzoyloxy)-5-[2-(dimethylamino)ethyl]-2,3-dihydro-1,5-benzothiazepin-4(5H)-one fumarate, when administered to mice orally, is more than 2 g/kg.

[8] = tested on: cerebral ischemia; experiment: Protective effect on cerebral ischemia: recovery of electrocorticogram activity after occlusion of common carotid and vertebral artery; type: in vivo; conditions: rats, 0.1 mg/kg/minute intravenously, within one hour after reestablishment of cerebral blood flow
[9] = tested on: atrioventricular conduction; experiment: Atrioventricular conduction in anesthetized guinea pigs, intravenous; type: in vivo; conditions: 3 mg/kg intravenously
[10] = tested on: atrioventricular conduction; conditions: known calcium-antagonistic vasodilator; cited from earlier work

SMILES: COc1ccc([C@@H]2Sc3ccccc3N(CCN(C)C)C(=O)[C@@H]2OC(=O)c2ccccc2[N+](=O)[O-])cc1.Cl (racemic) [(±)-cis-2-(4-methoxyphenyl)-3-(2-nitrobenzoyloxy)-5-[2-(dimethylamino)ethyl]-2,3-dihydro-1,5-benzothiazepin-4(5H)-one hydrochloride]
Platelet aggregation-inhibiting activity (class) [1]: ++

SMILES: COc1ccc([C@@H]2Sc3ccccc3N(CCN(C)C)C(=O)[C@@H]2OC(=O)c2ccc([N+](=O)[O-])cc2)cc1.O=C(O)/C=C\C(=O)O (racemic) [(±)-cis-2-(4-methoxyphenyl)-3-(4-nitrobenzoyloxy)-5-[2-(dimethylamino)ethyl]-2,3-dihydro-1,5-benzothiazepin-4(5H)-one maleate]
Coronary vasodilating activity (class) [2]: +++ (the increase is not less than 0.5 ml/minute at a dose of not more than 10 μg/heart)

SMILES: COc1ccc(C2Sc3ccccc3N(CCN(C)C)C(=O)C2OC(=O)c2ccccc2)cc1 (stereo not shown) [2-(4-methoxyphenyl)-3-benzoyloxy-5-[2-(dimethylamino)ethyl]-2,3-dihydro-1,5-benzothiazepin-4(5H)-one]
coronary vasodilating activity (known) [3]: have a coronary vasodilating activity

SMILES: COc1ccc(C2Sc3ccccc3N(CCN(C)C)C(=O)C2OCc2ccccc2)cc1 (stereo not shown) [2-(4-methoxyphenyl)-3-benzyloxy-5-[2-(dimethylamino)ethyl]-2,3-dihydro-1,5-benzothiazepin-4(5H)-one]
coronary vasodilating activity (known) [3]: have a coronary vasodilating activity

IC50 [4]: 2100 nM
SMILES: CCN(C)CCN1C(=O)[C@H](OC(=O)c2ccc([N+](=O)[O-])cc2Cl)[C@H](c2ccc(OC)cc2)Sc2ccccc21 [(+)-cis-2-(4-methoxyphenyl)-3-(2-chloro-4-nitrobenzoyloxy)-5-[2-(N-methyl-N-ethylamino)ethyl]-2,3-dihydro-1,5-benzothiazepin-4(5H)-one oxalate]

IC50 [4]: 2100 nM
SMILES: CCN(CC)CCN1C(=O)[C@H](OC(=O)c2ccc([N+](=O)[O-])cc2Cl)[C@H](c2ccc(OC)cc2)Sc2ccccc21.Cl [(+)-cis-2-(4-methoxyphenyl)-3-(2-chloro-4-nitrobenzoyloxy)-5-[2-(diethylamino)ethyl]-2,3-dihydro-1,5-benzothiazepin-4(5H)-one hydrochloride]
Cerebral vasodilating activity (potency ratio to papaverin, class) [5]: +++ (the potency ratio is not less than 3)

SMILES: COc1ccc([C@@H]2Sc3ccccc3N(CCN(C)C)C(=O)[C@@H]2OC(=O)c2ccc([N+](=O)[O-])cc2Cl)cc1.O=C(O)/C=C/C(=O)O [(+)-cis-2-(4-methoxyphenyl)-3-(2-chloro-4-nitrobenzoyloxy)-5-[2-(dimethylamino)ethyl]-2,3-dihydro-1,5-benzothiazepin-4(5H)-one fumarate]
total increase in vertebral blood flow [6]: 91 mL
LD50 [7]: > 2000 mg/kg
Cerebral vasodilating activity (potency ratio to papaverin, class) [5]: +++ (the potency ratio is not less than 3)
cerebral vasodilating activity, times stronger than that of papaverine ([5]; vertebral artery blood flow, anesthetized dogs, intraarterial): 4.5 times
Platelet aggregation-inhibiting activity (class) [1]: ++
coronary vasodilating activity, times stronger than that of papaverine ([2]; Langendorff method, isolated hearts of guinea pigs): 10 times
Coronary vasodilating activity (class) [2]: +++ (the increase is not less than 0.5 ml/minute at a dose of not more than 10 μg/heart)
recovery of electrocorticogram (ECoG) activity [8]: about 50%
IC50 [4]: 2500 nM
disturbance of atrioventricular conduction [9]: did not induce disturbance of atrioventricular conduction

IC50 [4]: 2700 nM
SMILES: COc1ccc([C@@H]2Sc3ccccc3N(CCN(C)C)C(=O)[C@@H]2OC(=O)c2ccc([N+](=O)[O-])c(OC)c2)cc1 [(+)-cis-2-(4-methoxyphenyl)-3-(3-methoxy-4-nitrobenzoyloxy)-5-[2-(dimethylamino)ethyl]-2,3-dihydro-1,5-benzothiazepin-4(5H)-one methanesulfonate]

IC50 [4]: 2500 nM
SMILES: COc1ccc([C@@H]2Sc3ccccc3N(CCN(C)C)C(=O)[C@@H]2OC(=O)c2ccc([N+](=O)[O-])c(C)c2)cc1.Cl [(+)-cis-2-(4-methoxyphenyl)-3-(3-methyl-4-nitrobenzoyloxy)-5-[2-(dimethylamino)ethyl]-2,3-dihydro-1,5-benzothiazepin-4(5H)-one hydrochloride]
Cerebral vasodilating activity (potency ratio to papaverin, class) [5]: +++ (the potency ratio is not less than 3)
Platelet aggregation-inhibiting activity (class) [1]: ++
Coronary vasodilating activity (class) [2]: +++ (the increase is not less than 0.5 ml/minute at a dose of not more than 10 μg/heart)

SMILES: COc1ccc([C@@H]2Sc3ccccc3N(CCN(C)C)C(=O)[C@@H]2OC(=O)c2ccc(Cl)cc2[N+](=O)[O-])cc1.Cl [(+)-cis-2-(4-methoxyphenyl)-3-(4-chloro-2-nitrobenzoyloxy)-5-[2-(dimethylamino)ethyl]-2,3-dihydro-1,5-benzothiazepin-4(5H)-one hydrochloride]
Cerebral vasodilating activity (potency ratio to papaverin, class) [5]: +++ (the potency ratio is not less than 3)
Coronary vasodilating activity (class) [2]: +++ (the increase is not less than 0.5 ml/minute at a dose of not more than 10 μg/heart)

IC50 [4]: 1400 nM
SMILES: COc1ccc([C@@H]2Sc3ccccc3N(CCN(C)C)C(=O)[C@@H]2OC(=O)c2ccc(Cl)c([N+](=O)[O-])c2)cc1.O=C(O)C(=O)O [(+)-cis-2-(4-methoxyphenyl)-3-(4-chloro-3-nitrobenzoyloxy)-5-[2-(dimethylamino)ethyl]-2,3-dihydro-1,5-benzothiazepin-4(5H)-one oxalate]
Cerebral vasodilating activity (potency ratio to papaverin, class) [5]: +++ (the potency ratio is not less than 3)

SMILES: COc1ccc([C@@H]2Sc3ccccc3N(CCN(C)C)C(=O)[C@@H]2OC(=O)c2ccc([N+](=O)[O-])cc2)cc1.O=C(O)/C=C/C(=O)O [(+)-cis-2-(4-methoxyphenyl)-3-(4-nitrobenzoyloxy)-5-[2-(dimethylamino)ethyl]-2,3-dihydro-1,5-benzothiazepin-4(5H)-one fumarate]
Cerebral vasodilating activity (potency ratio to papaverin, class) [5]: +++ (the potency ratio is not less than 3)
Platelet aggregation-inhibiting activity (class) [1]: ++
Coronary vasodilating activity (class) [2]: +++ (the increase is not less than 0.5 ml/minute at a dose of not more than 10 μg/heart)
IC50 [4]: 4500 nM

SMILES: COc1ccc(CCN(C)CCCC(C#N)(c2ccc(OC)c(OC)c2)C(C)C)cc1OC (stereo not shown) [verapamil, 5-[(3,4-dimethoxyphenethyl)methylamino]-2-(3,4-dimethoxyphenyl)-2-isopropylvaleronitrile]
effect on atrioventricular conduction (known) [10]: inhibits atrioventricular conduction to cause the prolongation of atrioventricular conduction time
